Literature values as cited in publication PMC4019989 (Clinical cancer research : an official journal of the …, 2009).

Tested on: animals
Settings: cited from earlier work

## CC(C)C[C@H](NC(=O)[C@H](Cc1ccccc1)NC(=O)c1cnccn1)B(O)O [bortezomib]
  Toxicity of consecutive-day dosing: excessive toxicity
